Measured values: US20250179059A1 (The Regents of the University of California, priority 2021, published 2025)
Like-named read-outs stand apart in the source and are kept apart here.

Columns and labels:
[1] = target: T1, human BRD4 bromodomain II (Homo sapiens, UniProt O60885); experiment: Bromodomain binding assay (AlphaScreen), BRD4 BDII
T1 construct: human BRD4 bromodomain II [based on Genbank NM_058243, residues 349-460]; host or cells: E. coli
Outline: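 First, His6-tagged BRD4 bromodomain (BDI residues 44-170 or BDII residues 349-460) is incubated with compound for 30 min at room temperature. Next the biotinylated H4 peptide is added for 30 min, then donor and acceptor beads, with 60 min in the dark before AlphaScreen reading and IC50 fitting.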

[2] = test system: human SKM-1 acute myeloid leukemia cells; experiment: SKM-1 antiproliferation cell-based assay (ATPlite); conditions: Homo sapiens
Outline: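 Log-phase cells in RPMI 1640/15% FBS were seeded at 34722 cells/mL and exposed for 4 days to nine-concentration DMSO serial dilutions in triplicate. Viability was read as ATP luminescence (ATPlite 1step), and IC50 values came from variable-slope non-linear regression.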

[3] = AlphaScreen assay, Table C2, read-out: BRD4 BDII IC50
[4] = SKM-1, 96 h, SKM-1 antiproliferation assay, 4 days, Table C2
[5] = BRD4 BDII AlphaScreen assay, read-out: BRD4 BD2 IC50
[6] = SKM-1, SKM-1 antiproliferation assay

SMILES	IC50 [1, 3]	GI50 [2, 4]	IC50 [1, 5]	GI50 [2, 6]
CC(C)N1CCN(c2cc(-c3cc(F)cc(-c4ccc(-n5ccn(C)c5=O)c(Cl)c4)c3O)cc3[nH]ncc23)CC1 [Example 587, 1-(3-chloro-5′-fluoro-2′-hydroxy-3′-(4-(4-isopropylpiperazin-1-yl)-1H-indazol-6-yl)-[1,1′-biphenyl]-4-yl)-3-methyl-1H-imidazol-2(3H)-one]	1 to 10 nM	0.3 to 30 nM	–	–
Cn1ccn(-c2ccc(-c3cc(F)cc(-c4ccnc(N5CCNC(CCN)C5)c4)c3O)cc2Cl)c1=O (stereo not drawn) [Example 697, 1-(3′-(2-(3-(2-aminoethyl)piperazin-1-yl)pyridin-4-yl)-3-chloro-5′-fluoro-2′-hydroxy-[1,1′-biphenyl]-4-yl)-3-methyl-1H-imidazol-2(3H)-one]	1 to 10 nM	30 to 300 nM	–	–
Cc1cc(-c2ccc(-n3ccn(C)c3=O)c(Cl)c2)c(O)c(-c2cncc(N3CCN(C(C)(C)C)CC3)c2)n1 [Example 1004, 1-(4-(5′-(4-(tert-butyl)piperazin-1-yl)-3-hydroxy-6-methyl-[2,3′-bipyridin]-4-yl)-2-chlorophenyl)-3-methyl-1H-imidazol-2(3H)-one]	–	–	1 to 10 nM	0.3 to 30 nM
Cn1ccn(-c2ccc(-c3cc(F)cc(-c4cc(N5CC6CCC5CN6)c5cn[nH]c5c4)c3O)cc2Cl)c1=O (stereo not drawn) [Example 600, 1-(3′-(4-(2,5-diazabicyclo[2.2.2]octan-2-yl)-1H-indazol-6-yl)-3-chloro-5′-fluoro-2′-hydroxy-[1,1′-biphenyl]-4-yl)-3-methyl-1H-imidazol-2(3H)-one]	1 to 10 nM	0.3 to 30 nM	–	–
CC(C)CN1CCN(c2cc(-c3cc(F)cc(-c4ccc(-n5ccn(C)c5=O)c(Cl)c4)c3O)ccn2)CC1 [Example 682, 1-(3-chloro-5′-fluoro-2′-hydroxy-3′-(2-(4-isobutylpiperazin-1-yl)pyridin-4-yl)-[1,1′-biphenyl]-4-yl)-3-methyl-1H-imidazol-2(3H)-one]	0.01 to 1 nM	0.3 to 30 nM	–	–
Cn1ccn(-c2ccc(-c3cc(F)cc(-c4cc(NS(C)(=O)=O)nc(N5CCNCC5)c4)c3O)cc2Cl)c1=O [Example 439, N-(4-(3′-chloro-5-fluoro-2-hydroxy-4′-(3-methyl-2-oxo-2,3-dihydro-1H-imidazol-1-yl)-[1,1′-biphenyl]-3-yl)-6-(piperazin-1-yl)pyridin-2-yl)methanesulfonamide]	0.01 to 1 nM	30 to 300 nM	–	–
C[C@@H]1CN(c2cc(-c3cccc(-c4ccc(N5CCN(C)C5=O)c(Cl)c4)c3O)ccn2)CCN1 [Example 294, (R)-1-(3-chloro-2′-hydroxy-3′-(2-(3-methylpiperazin-1-yl)pyridin-4-yl)-[1,1′-biphenyl]-4-yl)-3-methylimidazolidin-2-one]	1 to 10 nM	30 to 300 nM	–	–
Cn1ccn(-c2ccc(-c3cc(F)cc(-c4ccnc(N5CC[C@@H](O)[C@H](N)C5)c4)c3O)cc2Cl)c1=O [Example 487, 1-(3′-(2-((3R,4R)-3-amino-4-hydroxypiperidin-1-yl)pyridin-4-yl)-3-chloro-5′-fluoro-2′-hydroxy-[1,1′-biphenyl]-4-yl)-3-methyl-1H-imidazol-2(3H)-one]	1 to 10 nM	30 to 300 nM	–	–
COc1cc(-c2cc(F)cc(-c3cccc(N4CCN(C(C)(C)C)CC4)c3)c2O)cc(Cl)c1-n1ccn(C)c1=O [Example 910, 1-(3″-(4-(tert-butyl)piperazin-1-yl)-3-chloro-5′-fluoro-2′-hydroxy-5-methoxy-[1,1′:3′,1″-terphenyl]-4-yl)-3-methyl-1H-imidazol-2(3H)-one]	–	–	10 to 100 nM	30 to 300 nM
COCC(COC)N1CCN(c2cc(-c3cc(F)cc(-c4ccc(-n5ccn(C)c5=O)c(Cl)c4)c3O)ccn2)CC1 [Example 733, 1-(3-chloro-3′-(2-(4-(1,3-dimethoxypropan-2-yl)piperazin-1-yl)pyridin-4-yl)-5′-fluoro-2′-hydroxy-[1,1′-biphenyl]-4-yl)-3-methyl-1H-imidazol-2(3H)-one]	1 to 10 nM	30 to 300 nM	–	–
CNCc1n[nH]c2ccc(-c3cc(F)cc(-c4ccc(-n5ccn(C)c5=O)c(Cl)c4)c3O)cc12 [Example 494, 1-(3-chloro-5′-fluoro-2′-hydroxy-3′-(3-((methylamino)methyl)-1H-indazol-5-yl)-[1,1′-biphenyl]-4-yl)-3-methyl-1H-imidazol-2(3H)-one]	1 to 10 nM	30 to 300 nM	–	–
CC(C)N1CCN(c2cc(-c3cc(F)cc(-c4ccc(-n5ccn(C)c5=O)c(Cl)c4)c3O)cnc2Cl)CC1 [Example 787, 1-(3-chloro-3′-(6-chloro-5-(4-isopropylpiperazin-1-yl)pyridin-3-yl)-5′-fluoro-2′-hydroxy-[1,1′-biphenyl]-4-yl)-3-methyl-1H-imidazol-2(3H)-one]	0.01 to 1 nM	0.3 to 30 nM	–	–
Cc1cc(-c2ccc(-n3ccn(C)c3=O)c(Cl)c2)c(N)c(-c2cccc(N3CCN(C(C)(C)C)CC3)c2)n1 [Example 992, 1-(4-(3-Amino-2-(3-(4-(tert-butyl)piperazin-1-yl)phenyl)-6-methylpyridin-4-yl)-2-chlorophenyl)-3-methyl-1H-imidazol-2(3H)-one]	–	–	1 to 10 nM	0.3 to 30 nM
CN1CCN(c2ccc(-c3cc(F)cc(-c4cccc(N5CCN(C(C)(C)C)CC5)c4)c3O)cc2Cl)C1=O [Example 918, 1-(3″-(4-(tert-butyl)piperazin-1-yl)-3-chloro-5′-fluoro-2′-hydroxy-[1,1′:3′,1″-terphenyl]-4-yl)-3-methylimidazolidin-2-one]	–	–	1 to 10 nM	0.3 to 30 nM
CN[C@H]1CCCN(c2cc(-c3cc(F)cc(-c4ccc(-n5ccn(C)c5=O)c(Cl)c4)c3O)ccn2)C1 [Example 440, (S)-1-(3-chloro-5′-fluoro-2′-hydroxy-3′-(2-(3-(methylamino)piperidin-1-yl)pyridin-4-yl)-[1,1′-biphenyl]-4-yl)-3-methyl-1H-imidazol-2(3H)-one]	0.01 to 1 nM	30 to 300 nM	–	–
CN1CCN(c2ccc(-c3cc(F)cc(-c4ccnc(NCCN)c4)c3O)cc2Cl)C1=O [Example 363, 1-(3′-(2-((2-aminoethyl)amino)pyridin-4-yl)-3-chloro-5′-fluoro-2′-hydroxy-[1,1′-biphenyl]-4-yl)-3-methylimidazolidin-2-one]	10 to 100 nM	300 to 3000 nM	–	–
CN1CC2CN(c3cc(-c4cc(F)cc(-c5ccc(-n6ccn(C)c6=O)c(Cl)c5)c4O)ccn3)CC21 (stereo not drawn) [Example 659, 1-(3-chloro-5′-fluoro-2′-hydroxy-3′-(2-(6-methyl-3,6-diazabicyclo[3.2.0]heptan-3-yl)pyridin-4-yl)-[1,1′-biphenyl]-4-yl)-3-methyl-1H-imidazol-2(3H)-one]	0.01 to 1 nM	0.3 to 30 nM	–	–
COc1ncc(-c2cc(F)cc(-c3ccc(-n4ccn(C)c4=O)c(Cl)c3)c2OC(C)=O)cc1N1CCN(C(C)C)CC1 [Example 860]	–	–	> 100 nM	0.3 to 30 nM
CN1CCN(c2ccc(-c3cccc(-c4cc(C#N)cc(N5CCNCC5)c4)c3O)cc2Cl)C1=O [Example 331, 3″-chloro-2′-hydroxy-4″-(3-methyl-2-oxoimidazolidin-1-yl)-5-(piperazin-1-yl)-[1,1′:3′,1″-terphenyl]-3-carbonitrile]	1 to 10 nM	30 to 300 nM	–	–
Cn1ccn(-c2ccc(-c3cc(F)cc(-c4ccnc(N5C[C@@H](O)[C@H](F)C5)c4)c3O)cc2Cl)c1=O [Example 781, 1-(3-chloro-5′-fluoro-3′-(2-((3R,4R)-3-fluoro-4-hydroxypyrrolidin-1-yl)pyridin-4-yl)-2′-hydroxy-[1,1′-biphenyl]-4-yl)-3-methyl-1H-imidazol-2(3H)-one]	1 to 10 nM	30 to 300 nM	–	–
Cn1ccn(-c2ccc(-c3cc(F)cc(-c4cc(N5CCN(C(C)(C)C)CC5)no4)c3O)cc2Cl)c1=O [Example 905, 1-(3′-(3-(4-(tert-butyl)piperazin-1-yl)isoxazol-5-yl)-3-chloro-5′-fluoro-2′-hydroxy-[1,1′-biphenyl]-4-yl)-3-methyl-1H-imidazol-2(3H)-one]	–	–	1 to 10 nM	30 to 300 nM
Cn1ccn(-c2ccc(-c3cc(F)cc(-c4ccc(Cl)c(N5CCN(C(C)(C)C)CC5)c4)c3O)cc2Cl)c1=O [Example 809, 1-(3″-(4-(tert-butyl)piperazin-1-yl)-3,4″-dichloro-5′-fluoro-2′-hydroxy-[1,1′:3′,1″-terphenyl]-4-yl)-3-methyl-1H-imidazol-2(3H)-one]	1 to 10 nM	0.3 to 30 nM	–	–
CN[C@H]1CCN(c2cc(-c3cc(F)cc(-c4ccc(-n5ccn(C)c5=O)c(Cl)c4)c3O)ccn2)C1 [Example 429]	0.01 to 1 nM	0.3 to 30 nM	–	–
CCC1CCN(c2ccc(-c3cccc(-c4ccnc(N5CCNCC5)c4)c3O)cc2Cl)C1=O (stereo not drawn) [Example 345, 1-(3-chloro-2′-hydroxy-3′-(2-(piperazin-1-yl)pyridin-4-yl)-[1,1′-biphenyl]-4-yl)-3-ethylpyrrolidin-2-one]	> 100 nM	300 to 3000 nM	–	–
CN(C)C1(C)CCN(c2cc(-c3cc(F)cc(-c4ccc(-n5ccn(C)c5=O)c(Cl)c4)c3O)ccn2)C1 (stereo not drawn) [Example 741, 1-(3-chloro-3′-(2-(3-(dimethylamino)-3-methylpyrrolidin-1-yl)pyridin-4-yl)-5′-fluoro-2′-hydroxy-[1,1′-biphenyl]-4-yl)-3-methyl-1H-imidazol-2(3H)-one]	0.01 to 1 nM	0.3 to 30 nM	–	–
Cn1ccn(-c2ccc(-c3cc(F)cc(-c4cccc(N5CCN(C6CCC6)CC5)c4)c3O)cc2Cl)c1=O [Example 868]	–	–	1 to 10 nM	0.3 to 30 nM
COc1ncc(-c2cc(F)cc(-c3ccc(-n4ccn(C)c4=O)c(Cl)c3)c2O)cc1N1CC(F)(F)[C@@](C)(O)C1 [Example 899]	–	–	1 to 10 nM	300 to 3000 nM
